According to PubChem BioAssay AID2060507 (Molecular Pharmacology Branch, DTP, NCI, 2025):

System: 519858-162-T-J1-PDC complex spheroid viability
Assay: Anticancer human tumor 519858-162-T-J1-PDC patient-derived colon adenocarcinoma cell line growth inhibition [GQUAD]
Details: for IC50: curve of first compound; for viability, T/C: stronger effect = lower value; active = viability on the fitted dose curve at most 10% of control; inactive = the rest
In short: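 Multi-cell-type spheroids of tumor cells with HUVEC and mesenchymal stem cells, treated with drug combinations. Concentrations descend in half-log steps from near clinical Cmax, or from 10 microM where Cmax is unknown; viability read-out.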

[1] = second compound 0.0316 µM, first compound 0.0316 µM
[2] = second compound 0.0316 µM, first compound 0.1 µM
[3] = second compound 0.0316 µM, first compound 0.316 µM
[4] = second compound 0.0316 µM, first compound 1 µM
[5] = second compound 0.0316 µM, first compound 3.16 µM
[6] = second compound 0.0316 µM, first compound 10 µM
[7] = second compound 0.1 µM, first compound 0.0316 µM
[8] = second compound 0.1 µM, first compound 0.1 µM
[9] = second compound 0.1 µM, first compound 0.316 µM
[10] = second compound 0.1 µM, first compound 1 µM
[11] = second compound 0.1 µM, first compound 3.16 µM
[12] = second compound 0.1 µM, first compound 10 µM
[13] = second compound 0.316 µM, first compound 0.0316 µM
[14] = second compound 0.316 µM, first compound 0.1 µM
[15] = second compound 0.316 µM, first compound 0.316 µM
[16] = second compound 0.316 µM, first compound 1 µM
[17] = second compound 0.316 µM, first compound 3.16 µM
[18] = second compound 0.316 µM, first compound 10 µM
[19] = second compound 1 µM, first compound 0.0316 µM
[20] = second compound 1 µM, first compound 0.1 µM
[21] = second compound 1 µM, first compound 0.316 µM
[22] = second compound 1 µM, first compound 1 µM
[23] = second compound 1 µM, first compound 3.16 µM
[24] = second compound 1 µM, first compound 10 µM
[25] = second compound 3.16 µM, first compound 0.0316 µM
[26] = second compound 3.16 µM, first compound 0.1 µM
[27] = second compound 3.16 µM, first compound 0.316 µM
[28] = second compound 3.16 µM, first compound 1 µM
[29] = second compound 3.16 µM, first compound 3.16 µM
[30] = second compound 3.16 µM, first compound 10 µM
[31] = second compound 10 µM, first compound 0.0316 µM
[32] = second compound 10 µM, first compound 0.1 µM
[33] = second compound 10 µM, first compound 0.316 µM
[34] = second compound 10 µM, first compound 1 µM
[35] = second compound 10 µM, first compound 3.16 µM
[36] = second compound 10 µM, first compound 10 µM
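Also: spheroids exposed to compounds for 7 days.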
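For viability, T/C in this document: 100% = DMSO vehicle control viability.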

O=C(NO)c1cnc(N2CCN(S(=O)(=O)c3ccc4ccccc4c3)CC2)nc1 + Cc1[nH]c2ccc(F)cc2c1-c1nc2c3cccnc3c3ncccc3c2[nH]1
251 nM: IC50 (second compound 1 µM)
204 nM: IC50 (second compound 3.16 µM)
311 nM: IC50 (second compound 0.316 µM)
inactive: viability, T/C [1] 82.3% | viability, T/C [2] 82.8% | viability, T/C [3] 53.8% | viability, T/C [7] 102% | viability, T/C [8] 102% | viability, T/C [9] 34.3% | viability, T/C [13] 85.4% | viability, T/C [14] 95.8% | viability, T/C [15] 48.9% | viability, T/C [19] 75.9% | viability, T/C [20] 77.4% | viability, T/C [21] 43% | viability, T/C [25] 83% | viability, T/C [26] 87.8% | viability, T/C [27] 28.2% | viability, T/C [31] 64.7% | viability, T/C [32] 69.7% | viability, T/C [33] 36.7% | viability, T/C [34] 13.9%
active: viability, T/C [4] 10% | viability, T/C [5] 0.42% | viability, T/C [6] 0.52% | viability, T/C [10] 8.48% | viability, T/C [11] 0.31% | viability, T/C [12] 0.42% | viability, T/C [16] 8.61% | viability, T/C [17] 0.35% | viability, T/C [18] 1.29% | viability, T/C [22] 7.91% | viability, T/C [23] 0.49% | viability, T/C [24] 1.27% | viability, T/C [28] 5.99% | viability, T/C [29] 1.44% | viability, T/C [30] 0.36% | viability, T/C [35] 0.79% | viability, T/C [36] 0.64%
353 nM: IC50 (second compound 0.0316 µM)
195 nM: IC50 (second compound 10 µM)
242 nM: IC50 (second compound 0.1 µM)

O=c1[nH]cc(F)c(=O)[nH]1 + Cc1[nH]c2ccc(F)cc2c1-c1nc2c3cccnc3c3ncccc3c2[nH]1
> 10000 nM: IC50 (second compound 0.0316 µM) | IC50 (second compound 0.1 µM) | IC50 (second compound 0.316 µM) | IC50 (second compound 1 µM) | IC50 (second compound 3.16 µM) | IC50 (second compound 10 µM)
inactive: viability, T/C [1] 138% | viability, T/C [2] 85.8% | viability, T/C [3] 80.8% | viability, T/C [4] 98.3% | viability, T/C [5] 81.7% | viability, T/C [6] 87.3% | viability, T/C [7] 116% | viability, T/C [8] 103% | viability, T/C [9] 94% | viability, T/C [10] 98.6% | viability, T/C [11] 70.6% | viability, T/C [12] 84.9% | viability, T/C [13] 86% | viability, T/C [14] 103% | viability, T/C [15] 87.4% | viability, T/C [16] 83.7% | viability, T/C [17] 86.5% | viability, T/C [18] 74.9% | viability, T/C [19] 101% | viability, T/C [20] 83.2% | viability, T/C [21] 75.8% | viability, T/C [22] 65.7% | viability, T/C [23] 60.6% | viability, T/C [24] 89.5% | viability, T/C [25] 57% | viability, T/C [26] 69% | viability, T/C [27] 65.7% | viability, T/C [28] 75.5% | viability, T/C [29] 71.3% | viability, T/C [30] 63% | viability, T/C [31] 81% | viability, T/C [32] 78.1% | viability, T/C [33] 59.6% | viability, T/C [34] 71.9% | viability, T/C [35] 83.1% | viability, T/C [36] 55.6%
